Results on one compound are retold here after patent US20260144769A1, “4-PHENYLBUTYRATE RESTORED GABA UPTAKE AND REDUCED SEIZURES IN SLC6A1 VARIANT-MEDIATED DISORDERS” (Vanderbilt University, priority 2022, published 2026).

Experiment [1] has as its target T1, GAT-1 S295L (Rattus norvegicus, UniProt P23978, S295L).
T1 construct: The coding region of rGAT-1 was inserted into pEYFP-C1 (Clontech, Palo Alto, CA); expressed in transfected cells; host or cells: HEK293T cells (A5); astrocytes from corrected human iPSCs (A25)
Kind of experiment: 3H GABA uptake, HEK293T, mutant cDNA alone ("homozygous"). Particulars: PBA 2 mM, 24 hrs. Format: cell-based. How it is done: (§1) GABA uptake activity was measured by the high-throughput 3H radio-labeling GABA uptake on a liquid scintillator with QuantaSmart. […] HEK293T cells were transfected with the wildtype or the mutant GAT-1^YFP cDNAs alone for 48 hr. […] HEK293T cells were transfected with the wildtype GAT-1^YFP alone or in mixture of the wildtype or the mutant cDNAs for 48 hr. In the mixed condition, the ratio of the wildtype GAT-1 with pcDNA or the mutant cDNAs are 1:1 with the total cDNA amount of 0.5 μg. […] Both wt and the mutant were normalized to its own DMSO treated conditions. 966 stands for the wildtype treated with CI-966 (50 μM) while 711 stands for NNC-711 (35 μM). (N=4-7 different transfections. In FIG. 4A and FIG. 4B, *P<0.05, **P<0.01, ***p<0.001 vs. wt 0. In FIG. C and FIG. 4D, *P<0.05, **P<0.01, ***p<0.001 vs. its own DMSO treated. In FIG. 4C, ns stands for no significance. One-way analysis of variance (ANOVA) and Newman-Keuls test. Values were expressed as mean±S.E.M.
(§2) The plasmid cDNA encoding enhanced yellow fluorescent protein (EYFP)-tagged rat GAT-1 has been previously described. The coding region of rGAT-1 was inserted into pEYFP-C1 (Clontech, Palo Alto, CA). QuikChange Site-directed Mutagenesis kit was utilized to introduce the GAT-1 variants into a wildtype GAT-1 plasmid. The product was then amplified via polymerase chain reaction, transformed using DH5a competent cells, and plated. A clone was chosen and grown overnight. All the GAT-1 variants were confirmed by DNA sequencing. Both the wildtype and the variant cDNAs were prepared with Qiagen Maxiprep kit.
(§3) Human embryonic kidney cells were cultured as monolayers in 100 mm^2 dishes. Cells were cultured in Dulbecco's Modified Eagle's Medium supplemented with 10% FBS and 1% penicillin/streptomycin in 37° C. in 5% CO2/95% air. Cells were maintained in culture medium until appropriate confluency for experimentation.
(§4) Briefly, cells were cultured in […] dishes for 3 days before the GABA uptake experiment in DMEM with 10% fetal bovine serum and 1% penicillin/streptomycin. The cells were then transfected with equal amounts of the wildtype or the mutant GAT-1 cDNAs (1 μg) for each condition at 24 hrs or 48 hrs after plating. GABA uptake assay was carried out 48 hrs after transfection. The cells were incubated with preincubation solution for 15 min and then incubated with preincubation solution containing 1 μci/mL 3H GABA and 10 μM unlabeled GABA for 30 min at room temperature. After washing, the cells were lysed with 0.25 N NaOH for 1 hr. Glacial acetic acid was added, and lysates were then determined on a liquid scintillator with QuantaSmart. The flux of GABA (pmol/μg/min) was averaged with at least triplets for each condition at each transfection. The average counting was taken as n=1. The untransfected condition was taken as a baseline that was subtracted from both the wildtype and the mutant conditions. The pmol/μg/min in the mutant was then normalized to the wildtype from each experiment, which was arbitrarily taken as 100%. The protocols for GABA reuptake assay in cultured mouse astrocytes, neuron or iPSC derived cells were modified from the GABA uptake protocol on HEK 293T cells. GAT-1 inhibitors CL-966 and NNC-711 were applied each time to make sure the radioactive counts were specific.
(§5) The working solution was stored at 4° C.

Experiment [2] addresses T2, GAT-1 W495X (Rattus norvegicus, UniProt P23978).
T2 construct: expressed in transfected cells; host or cells: HEK293T cells
The description is as above. It counts as cell-based. Particulars: PBA 2 mM, 24 hrs. As to the method: as §1, §2, §3, §4, §5

Experiment [3] addresses T3, GAT-1 G326R (Rattus norvegicus, UniProt P23978, G362R).
T3 construct: The coding region of rGAT-1 was inserted into pEYFP-C1 (Clontech, Palo Alto, CA); expressed in transfected cells; host or cells: HEK293T cells
Described as above. It counts as cell-based. Particulars: PBA 2 mM, 24 hrs. As to the method:
as §1, §2, §3, §4, §5

Experiment [4] has as its target T4, GAT-1 A288V (Rattus norvegicus, UniProt P23978, A288V).
T4 construct: The coding region of rGAT-1 was inserted into pEYFP-C1 (Clontech, Palo Alto, CA); expressed in transfected cells; host or cells: HEK293T cells (A4); astrocytes from corrected human iPSCs (A24)
Described as above. It counts as cell-based. Particulars: PBA 2 mM, 24 hrs. As to the method:
as §1, §2, §3, §4, §5

Experiment [5] deals with T5, GAT-1 V125M (Rattus norvegicus, UniProt P23978, V125M).
T5 construct: The coding region of rGAT-1 was inserted into pEYFP-C1 (Clontech, Palo Alto, CA); expressed in transfected cells; host or cells: HEK293T cells (A3); astrocytes from corrected human iPSCs (A23)
Described as above. Format: cell-based. Particulars: PBA 2 mM, 24 hrs. As to the method: as §1, §2, §3, §4, §5

For experiment [6], the target named is T6, GAT-1 D410E (Rattus norvegicus, UniProt P23978, D410E).
T6 construct: The coding region of rGAT-1 was inserted into pEYFP-C1 (Clontech, Palo Alto, CA); expressed in transfected cells; host or cells: HEK293T cells (A7); astrocytes from corrected human iPSCs (A27)
The description is as above. It counts as cell-based. Particulars: PBA 2 mM, 24 hrs. As to the method: as §1, §2, §3, §4, §5

The subject of experiment [7] is neural progenitor cells. Put plainly: GABA uptake in neural progenitor cells. Format: cell-based. Particulars: NPCs; data not shown. How it is done: NPCs were differentiated from iPSCs at passage 22-24 with differentiation of neural progenitor cells (NPCs) was induced by STEMdiff SMADi Neural induction kit from […]. iPSCs were seeded in a Geltrex coated dish at a density of ˜2×10^6 cells/per one 35 mm^2 dish or 6 well plate. The medium was refreshed daily, and the cells were passaged at day 5-7. NPCs at Passage 1 which was at least 10-12 days after neural induction were used for this study.
Briefly, cells were cultured in […] dishes for 3 days before the GABA uptake experiment in DMEM with 10% fetal bovine serum and 1% penicillin/streptomycin. The cells were then transfected with equal amounts of the wildtype or the mutant GAT-1 cDNAs (1 μg) for each condition at 24 hrs or 48 hrs after plating. GABA uptake assay was carried out 48 hrs after transfection. The cells were incubated with preincubation solution for 15 min and then incubated with preincubation solution containing 1 μci/mL 3H GABA and 10 μM unlabeled GABA for 30 min at room temperature. After washing, the cells were lysed with 0.25 N NaOH for 1 hr. Glacial acetic acid was added, and lysates were then determined on a liquid scintillator with QuantaSmart. The flux of GABA (pmol/μg/min) was averaged with at least triplets for each condition at each transfection. The average counting was taken as n=1. […]

Experiment [8] has as its system SLC6A1 gene expression. Kind of experiment: RT-qPCR of SLC6A1 gene expression, mouse whole-brain tissue. Format: in vivo. Particulars: wild-type and SLC6A1^+/S295L mice; PBA for 7 days; whole-brain RNA. From the text: FIGS. 14A-B show RT-qPCR data from a cohort of nine wild-type mice (FIG. 14A) and seven SLC6A1^+/S295L mice (FIG. 14B). […] Total RNA was extracted from mouse whole-brain tissue.
(In general: Real-time PCR tracks product formation cycle by cycle.)

In experiment [9] the target is GAT-1 E16X (Rattus norvegicus, UniProt P23978). Kind of experiment: 3H GABA uptake, HEK293T, mutant cDNA alone ("homozygous"). Format: cell-based. Set-up: with only 15 amino acids left in the protein peptide; expressed in transfected cells; host or cells: HEK293T cells. Particulars: PBA 2 mM, 24 hrs. How it is done:
as §1
The plasmid cDNA encoding enhanced yellow fluorescent protein (EYFP)-tagged rat GAT-1 has been previously described. […]
Briefly, cells were cultured in […] dishes for 3 days before the GABA uptake experiment in DMEM with 10% fetal bovine serum and 1% penicillin/streptomycin. […] Glacial acetic acid was added, and lysates were then determined on a liquid scintillator with QuantaSmart. […]

Consider `O=C(O)CCCc1ccccc1` [PBA, 4-phenylbutyric acid], for which the “GABA uptake normalized to its own DMSO treated condition” value was found to be 1.386±0.058 in experiment [1]; 1.323±0.054 in experiment [2]; 1.185±0.065 in experiment [3]; 1.22±0.063 in [4]; 1.378±0.056 in experiment [5]; 1.236±0.074 in experiment [6]. Moreover, in experiment [9], the “GABA uptake normalized to its own DMSO treated condition” value was 0.813±0.06. Also, the “GABA uptake in neural progenitor cells after PBA treatment” value in [7] is “increase”. Further, in [8], the “SLC6A1 gene expression, treated vs. untreated mice” value is given as “no significant difference”.
